Marks after values point to notes of the source that are not given here.
What was measured:
[1] = biological target: T1, PAR2 (HT-29 cells, SLIGKV activation) (Homo sapiens, UniProt P55085); assay: Ca FLIPR TETRA assay, ANTAGONIST mode, stimulation with 8 μM SLIGKV; type: cell-based; conditions: HT-29 cells, antagonist mode, stimulation with 8 μM SLIGKV
T1 construct: host or cells: HT-29 cells
T1 sequence (P55085 26-397): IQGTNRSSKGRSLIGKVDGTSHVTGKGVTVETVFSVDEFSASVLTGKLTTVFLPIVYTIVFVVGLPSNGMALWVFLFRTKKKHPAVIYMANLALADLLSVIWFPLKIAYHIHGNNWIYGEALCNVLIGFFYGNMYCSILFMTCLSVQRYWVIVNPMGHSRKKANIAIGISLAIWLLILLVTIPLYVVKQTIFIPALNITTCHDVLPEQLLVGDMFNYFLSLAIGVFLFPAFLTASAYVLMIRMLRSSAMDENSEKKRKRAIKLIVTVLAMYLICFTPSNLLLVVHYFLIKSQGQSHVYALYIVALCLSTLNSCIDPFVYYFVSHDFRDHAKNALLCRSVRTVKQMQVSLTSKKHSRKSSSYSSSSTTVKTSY
In short: (§1)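 Cells plated overnight at 37 °C, 5% CO2 in 1% FBS medium; dye loading 45 min at 37 °C then 15 min r.t.; compound added from DMSO/HBSS dilution; first read for intrinsic Ca2+ activation; 30 min r.t. incubation; antagonist read after addition of the fixed activator (8 μM SLIGKV, 1 U/mL thrombin, 3.1 U/mL trypsin or 0.6 μM UTP).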

[2] = biological target: T2, PAR2 (HT-29 cells, trypsin activation) (Homo sapiens, UniProt P55085); assay: Ca FLIPR TETRA assay, ANTAGONIST mode, stimulation with 3.1 U/mL trypsin; type: cell-based; conditions: HT-29 cells, antagonist mode, stimulation with 3.1 U/mL trypsin
T2 construct: host or cells: HT-29 cells
T2 sequence (P55085 26-397): T1 sequence (P55085 26-397)
In short: as §1

[3] = system: Thrombin-stimulated Ca2+ response in HT-29 cells; assay: Ca FLIPR TETRA assay, ANTAGONIST mode, stimulation with 1 U/mL Thrombin; type: cell-based, human; conditions: Homo sapiens; HT-29 cells, antagonist mode, stimulation with 1 U/mL Thrombin
In short: as §1

[4] = system: UTP-stimulated Ca2+ response in HT-29 cells; assay: Ca FLIPR TETRA assay, ANTAGONIST mode, stimulation with 0.6 μM UTP; type: cell-based, human; conditions: Homo sapiens; HT-29 cells, antagonist mode, stimulation with 0.6 μM UTP
In short: as §1

[5] = In vivo rat pharmacokinetics (intravenous and oral); conditions: plasma; for clearance: intravenous 0.5 to 1 mg/kg, read-out: Clp; for Vd: intravenous, read-out: Vss; for bioavailability: oral by gavage; for half-life: read-out: T ½ (converted)
Method: Example 61: Protocol for Testing PAR2 Compounds In Vivo Rat Pharmacokinetics Experiments
Compounds delivered by intravenous route were formulated using a solution formulation consisting of 5% N-methylpyrrolidone 10% Vitamin E-TPGS and 85% water (v/v/) or a solution formulation consisting of 25% N-methylpyrrolidone 35% polyethylene glycol 400 and 40% water (v/v/). Intravenous formulations were administered by a bolus injection (over approximately 10 seconds) using a hypodermic needle attaches to a syringe (tail vein). The dose volume was varied from 1 to 2 mL/kg and the dose was varied from 0.5 to 1 mg/kg. Compounds delivered orally were formulated as a solution formulation consisting of 5% N-methylpyrrolidone 10% Vitamin E-TPGS and 85% water (v/v/) or as fine suspension using a cellulose derivative suspending agent with or without the addition of a wetting agent/surfactant. Milling of large particles was performed as needed to reduce particle size using focused electroacoustic milling, homogenization or low energy media milling. A spray-dried solid dispersion was prepared for key compounds using 1:1 combination with cellulose derivatives. Test compounds were administered orally by gavage using a gavage plastic needle attached to a syringe. The dose volume was varied from 5 to 10 mL/kg and the dose was varied from 1 to 600 mg/kg.
Rats were bled by venipuncture (jugular vein) and the samples were collected into tubes containing K3EDTA. The tubes were placed on wet ice until processed. The samples were centrifuged for approximately 10 minutes (at approximately 4° C.) within approximately 30 minutes of collection to prepare plasma or diluted in citrate buffer (1:3) and stored frozen (approximately −30° C.). Thawed plasma or whole blood samples were extracted by protein precipitation using an organic solvent followed by centrifugation. The supernatants were separated by high-performance liquid chromatography coupled to mass spectrometry detection. A calibration curve was prepared using reference standard compounds spiked into either blank plasma or whole blood matrices and extracted similarly to unknown samples. Pharmacokinetic parameters were calculated using non-compartmental analysis.

[6] = system: carrageenan-induced paw edema; assay: Rat carrageenan-induced paw edema model; type: in vivo, Sprague Dawley rats; conditions: for % inhibition of an established carrageenan induced rat paw edema: given 2 hours post carrageenan challenge; for % inhibition of carrageenan induced paw edema: given before carrageenan challenge
Method: (§2) Male Sprague Dawley rats and BALB/c mice were housed in groups in a temperature controlled room and were acclimatized in the animal facility for at least three days prior to use. Experiments were performed during the light phase of the cycle. Animals have food and water ad libitum.
Example 63: Rat Carrageenan-Induced Paw Edema Model
Peripheral inflammation was induced by intra-plantar administration of 100 ul of a 1% w/volume (in saline) carrageenan solution under isoflurane anesthesia. The degree of swelling was assessed using the plethysmometer at 2-3-4-5-6 h after carrageenan injection. Test compound or vehicle (0.5% MC/0.1% SDS) was systemically administered at the indicated doses in a volume of 5 mL/kg either I-3 hour before carrageenan challenge (Table 9) or 2 hours post carrageenan challenge (Table 10).
(§3) Data are expressed as the mean % effect. Statistical significance was assessed using t-test for comparison between naive and inflamed rats, and one-way ANOVA followed by post-hoc comparison test for overall drug effectiveness. A difference between groups is considered significant with a p value of <0.05. *, p<0.05; **, p<0.01; ***, p<0.001 vs. vehicle.

[7] = system: tryptase-induced mechanical hypersensitivity; assay: Rat tryptase-induced mechanical hypersensitivity model; type: in vivo, Sprague Dawley rats; conditions: for % inhibition of tryptase-induced nociception: given 3-18 h before the tryptase challenge; for % inhibition of an established tryptase-induced nociception: given 30 minutes post tryptase challenge
Method: as §2
Example 64: Rat Tryptase-Induced Mechanical Hypersensitivity Model
Peripheral sensitization was induced by intra-dermal administration of 500 ng of tryptase in a volume of 10 ul PBS under isoflurane anesthesia. Rats were then placed on a wire mesh grid in separate compartments and allowed to acclimatize before testing. Mechanical hypersensitivity was assessed 30 min after tryptase injection using calibrated von Frey filaments applied perpendicular to the plantar surface of the affected paw using the up-and-down method. Test compounds or vehicle (0.5% MC/0.1% SDS) were systemically administered at doses indicated in a volume of 5 mL/kg 3-18 h before the tryptase challenge (Table 11) or 30 minutes post tryptase challenge (Table 12).
as §3

TNBS-induced colitis = assay: Mouse TNBS-induced colitis model; type: in vivo, BALB/c mice; conditions: mice
Method: as §2
Example 65: Mouse TNBS-Induced Colitis Model
Colitis was induced by intra-colonic administration of 1.5 mg of TNBS in 75 μl of 40% v/volume ethanol solution under isoflurane anesthesia at a depth of 4 cm from the anal verge. Mice were kept with their heads down for 30 additional seconds post administration to ensure distribution of TNBS. Disease activity scores were assessed for a period of 5 days starting prior to TNBS injection (baseline reading). […] Test compounds or vehicle (0.5% MC/0.1% SDS) were systemically administered at the indicated doses in a volume of 10 mL/kg each day for 5 days and starting 1 day before TNBS.
as §3

IC50 [1] [nM] | IC50 [2] [nM] | IC50 [3] [nM] | IC50 [4] [nM] | clearance [5] [mL/min/kg] | Vd [5] [L/kg] | bioavailability [5] [%] | half-life [5] [h] | Structure (SMILES) | % inhibition of carrageenan induced paw edema ([6]; dose 20 mg/kg) | other results
1.4 | 2.3 | 320 | 440 | 0.7 | 3.2 | 66 | 56.9 | CC(C)(C)c1cc(-c2ccc(F)cc2)nn2cc(C(=O)N3CCNC(=O)C3(C)C)nc12 [Compound I-191, 4-(8-(tert-butyl)-6-(4-fluorophenyl)imidazo[1,2-b]pyridazine-2-carbonyl)-3,3-dimethylpiperazin-2-one] | – | % inhibition of an established carrageenan induced rat paw edema ([6]; dose 0.6 mg/kg): 26%; % inhibition of an established carrageenan induced rat paw edema ([6]; dose 2 mg/kg): 40* %; % inhibition of an established carrageenan induced rat paw edema ([6]; dose 3 mg/kg): 46*** %; % inhibition of an established carrageenan induced rat paw edema ([6]; dose 6 mg/kg): 48* %; % inhibition of an established carrageenan induced rat paw edema ([6]; dose 10 mg/kg): 50*** %; % inhibition of an established carrageenan induced rat paw edema ([6]; dose 30 mg/kg): 57*** %; % inhibition of tryptase-induced nociception ([7]; dose 1 mg/kg): 26%; % inhibition of tryptase-induced nociception ([7]; dose 3 mg/kg): 36%; % inhibition of tryptase-induced nociception ([7]; dose 10 mg/kg): 40** %; % improvement in Disease activity scores (TNBS-induced colitis; dose 15 mg/kg each day for 5 days starting 1 day before TNBS): 21** %; % improvement in Disease activity scores (TNBS-induced colitis; dose 50 mg/kg each day for 5 days starting 1 day before TNBS): 36*** %
0.7 | 0.9 | 370 | 560 | 10.9 | 3.3 | 55 | 4.3 | CC(C)(C)c1cc(-c2ccc(F)cc2)nn2cc(C(=O)N3CCN(C(=O)c4ccn[nH]4)CC3(C)C)nc12 [Compound I-201] | 60*** % | % inhibition of carrageenan induced paw edema ([6]; dose 5 mg/kg): 55** %; % inhibition of tryptase-induced nociception ([7]; dose 5 mg/kg): 52** %; % inhibition of tryptase-induced nociception ([7]; dose 15 mg/kg): 65*** %
7.5 | 10.2 | 3750 | 3650 | 4.8 | 1.6 | 70 | 5.1 | Cc1cc(-c2cc(C(C)C)c3nc(C(=O)N4CCNC(=O)C4(C)C)cn3n2)ccc1F [Compound I-244, 4-[6-(4-fluoro-3-methyl-phenyl)-8-isopropyl-imidazo[1,2-b]pyridazine-2-carbonyl]-3,3-dimethyl-piperazin-2-one] | 67*** % | % inhibition of carrageenan induced paw edema ([6]; dose 2 mg/kg): 42** %; % inhibition of carrageenan induced paw edema ([6]; dose 6 mg/kg): 51** %; % inhibition of an established tryptase-induced nociception ([7]; dose 2 mg/kg): 21* %; % inhibition of an established tryptase-induced nociception ([7]; dose 6 mg/kg): 43* %; % inhibition of an established tryptase-induced nociception ([7]; dose 20 mg/kg): 48* %
